The values below come from ChEMBL document CHEMBL4823315 (Bioorg Med Chem Lett, 2021).

The target in data set [1] is Serine/threonine-protein kinase AKT (Homo sapiens, UniProt P31751+Q9Y243+P31749). Briefly: Inhibition of Akt (unknown origin). In kind it is protein assay.
The nature of data set [2]: Inhibition of Akt/p70S6K in human MDA-MB-436 cells assessed as inhibition of S6 phosphorylation. The data set is classed as cell-based.
Data set [3] is described as follows: Inhibition of p70S6K (unknown origin). Set-up: species or system Homo sapiens.
Another data set deals with hERG (KCNH2) (Homo sapiens, UniProt Q12809). Briefly: Inhibition of human ERG at 10 uM by patch clamp assay.
Chain of hERG (KCNH2) (Q12809 whole entry): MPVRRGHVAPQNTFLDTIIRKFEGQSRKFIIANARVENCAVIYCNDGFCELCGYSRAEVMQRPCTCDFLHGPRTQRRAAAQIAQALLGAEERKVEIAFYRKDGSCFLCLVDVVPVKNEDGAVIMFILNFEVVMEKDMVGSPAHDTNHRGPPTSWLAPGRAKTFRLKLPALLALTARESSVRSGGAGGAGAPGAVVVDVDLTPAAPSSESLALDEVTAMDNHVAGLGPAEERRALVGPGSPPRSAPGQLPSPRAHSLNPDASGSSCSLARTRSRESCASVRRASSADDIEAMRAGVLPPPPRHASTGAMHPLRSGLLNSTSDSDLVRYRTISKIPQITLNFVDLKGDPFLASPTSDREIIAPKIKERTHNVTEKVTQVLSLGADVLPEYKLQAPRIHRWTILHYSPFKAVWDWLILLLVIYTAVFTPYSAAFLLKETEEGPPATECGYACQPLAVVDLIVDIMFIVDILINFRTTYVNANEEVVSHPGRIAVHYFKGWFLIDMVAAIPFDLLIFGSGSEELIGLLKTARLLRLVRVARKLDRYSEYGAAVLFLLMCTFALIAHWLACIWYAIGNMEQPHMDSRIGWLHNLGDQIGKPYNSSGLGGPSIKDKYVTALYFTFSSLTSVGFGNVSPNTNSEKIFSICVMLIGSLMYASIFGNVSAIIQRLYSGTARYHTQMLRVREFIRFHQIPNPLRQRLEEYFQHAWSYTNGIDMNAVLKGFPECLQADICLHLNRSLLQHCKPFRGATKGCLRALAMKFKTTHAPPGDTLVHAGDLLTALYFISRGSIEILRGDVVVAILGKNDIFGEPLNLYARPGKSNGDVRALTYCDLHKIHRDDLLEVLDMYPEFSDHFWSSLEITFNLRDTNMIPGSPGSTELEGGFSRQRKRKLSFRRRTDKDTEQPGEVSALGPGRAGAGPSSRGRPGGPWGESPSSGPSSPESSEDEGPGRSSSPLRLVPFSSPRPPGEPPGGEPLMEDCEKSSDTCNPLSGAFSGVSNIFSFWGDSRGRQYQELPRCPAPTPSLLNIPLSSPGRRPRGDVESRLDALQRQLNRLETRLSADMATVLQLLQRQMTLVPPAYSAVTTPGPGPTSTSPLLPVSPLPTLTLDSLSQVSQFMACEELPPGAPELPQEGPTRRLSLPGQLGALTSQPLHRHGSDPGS
Data set [4] has as its target Voltage-gated inwardly rectifying potassium channel KCNH2 (Homo sapiens, UniProt Q12809). Put plainly: Inhibition of human ERG by patch clamp assay.

As usually defined, the IC50 is the concentration that inhibits the measured activity by half. What is called inhibition is the percentage by which the read-out fell short of the control. The low end stands for a response near the control, the high end for a response far below the control.

Chain of Voltage-gated inwardly rectifying potassium channel KCNH2 (Q12809 whole entry): as above

Consider `NCC(c1ccc(C(F)(F)F)cc1)N1CCN(c2ncnc(N)c2-c2ccc(F)cc2)CC1` (stereo not given), for which the IC50 in data set [1] came to 0.35 µM; in data set [2], 0.4 µM; in data set [3] it was 0.0022 µM.

Consider `Cn1cc(-c2ccc(F)c(C(F)(F)F)c2)nc1C1CCN(c2ncnc(N)c2-c2cncnc2)CC1`, for which the values for the IC50 in data set [1], in data set [2] and in data set [3] were 0.88 µM, 0.7 µM and 0.0023 µM, respectively.

`Cn1cc(-c2ccc(F)c(C(F)(F)F)c2)nc1C1CCN(c2ncnc3[nH]ncc23)CC1` [LY-2584702] registered an inhibition at 10 µM against hERG (KCNH2) of 29%.

`C=Cc1c(N)ncnc1N1CCC(c2nc(-c3ccc(F)c(C(F)(F)F)c3)cn2CCN(C)C)CC1`: the IC50 in data set [1] stood at 0.0091 µM; in data set [4] it was 1.1 µM; in data set [3], 0.0035 µM.

In the case of `Nc1ncnc(N2CCC(c3nc(-c4ccc(F)c(C(F)(F)F)c4)cn3CCN3CCC3)CC2)c1C1CCC1`, the IC50 in data set [1] is 0.0073 µM; in data set [4], 1.3 µM; in data set [3], 0.006 µM.

On to `CN(C)CC(c1ccc(C(F)(F)F)cc1)N1CCN(c2ncnc(N)c2-c2ccc(F)cc2)CC1` (stereo not given), for which the IC50 in data set [1] is more than 1 µM; in data set [2] it was 1.2 µM; in data set [3], 0.0049 µM.

Regarding `CC(C)c1c(N)ncnc1N1CCC(c2nc(-c3ccc(F)c(C(F)(F)F)c3)cn2CCN2CCC2)CC1`, the IC50 in data set [1] was 0.0066 µM; in data set [2], 78 µM; in data set [4], 1.8 µM; in data set [3], 0.0035 µM.

Take `N#Cc1c(N)ncnc1N1CCC(c2nc(-c3ccc(F)c(C(F)(F)F)c3)cn2CCN2CCC2)CC1`: the IC50 is 0.0022 µM in data set [1], 52 µM in data set [2] and 0.0008 µM in data set [3].

Turning to `Cn1cc(-c2ccc(F)c(C(F)(F)F)c2)nc1C1CCN(c2ncnc(N)c2-c2ccccc2F)CC1`, the IC50 in data set [1] was more than 1 µM; in data set [2], 0.8 µM; in data set [3], 0.003 µM.

As to `CN(C)CCn1cc(-c2ccc(F)c(C(F)(F)F)c2)nc1C1CCN(c2ncnc(N)c2-c2ccc(F)cc2)CC1`, the IC50 worked out at 0.23 µM in data set [1], 1.2 µM in data set [4] and 0.0073 µM in data set [3].

With `Nc1ncnc(N2CCC(c3nc(-c4ccc(F)c(C(F)(F)F)c4)cn3CCN3CCCC3)CC2)c1-c1ccc(F)cc1`, the IC50 came out at 0.14 µM in data set [1], 1.5 µM in data set [4] and 0.0082 µM in data set [3].

In the case of `Nc1ncnc(N2CCC(c3nc(-c4ccc(F)c(C(F)(F)F)c4)cn3CCN3CCCCC3)CC2)c1-c1ccc(F)cc1`, the values for the IC50 in data set [1] and in data set [3] were 0.35 µM and 0.018 µM, respectively.

In the case of `Cn1cc(-c2ccc(F)c(C(F)(F)F)c2)nc1C1CCN(c2cc(N)ncn2)CC1`, the IC50 in data set [1] was more than 1 µM; in data set [2] it was 22 µM; in data set [3] it was 0.102 µM.

As to `COc1c(N)ncnc1N1CCC(c2nc(-c3ccc(F)c(C(F)(F)F)c3)cn2C)CC1`, the IC50 in data set [1] is 0.518 µM; in data set [2], 1.2 µM; in data set [3], 0.0022 µM.

As to `C=Cc1c(N)ncnc1N1CCC(c2nc(-c3ccc(F)c(C(F)(F)F)c3)cn2CCN2CCC2)CC1`, the IC50 in data set [1] is 0.0042 µM; in data set [4] it was 0.93 µM; in data set [3], 0.0026 µM.

On to `CN(C)CCn1cc(-c2ccc(F)c(C(F)(F)F)c2)nc1C1CCN(c2ncnc(N)c2C#N)CC1`, for which the half-maximal inhibitory concentration (IC50) in data set [1] is 0.0069 µM; in data set [2] it was 55 µM; in data set [4], 1.6 µM; in data set [3], 0.0018 µM.

In the case of `NCC(c1ccccc1)N1CCN(c2ncnc(N)c2-c2ccc(F)cc2)CC1` (stereo not given), the values for the IC50 in data set [1], in data set [2] and in data set [3] were more than 1 µM, 2.6 µM and 0.0063 µM, respectively.

Regarding `Cn1cc(-c2ccc(F)c(C(F)(F)F)c2)nc1C1CCN(c2ncnc(N)c2-c2ccncc2)CC1`, the IC50 is 0.93 µM in data set [1], 0.4 µM in data set [2] and 0.002 µM in data set [3].

In the case of `Nc1ncnc(N2CCC(c3nc(-c4ccc(F)c(C(F)(F)F)c4)cn3CCN3CCC3)CC2)c1-c1ccc(F)cc1`, the IC50 came out at 0.023 µM in data set [1], 1.3 µM in data set [4] and 0.0024 µM in data set [3].

`Cn1cc(-c2ccc(F)c(C(F)(F)F)c2)nc1C1CCN(c2ncnc(N)c2C#N)CC1`: the IC50 in data set [1] came to 0.26 µM; in data set [2], 0.3 µM; in data set [3] it was 0.0013 µM.

In the case of `Nc1ncnc(N2CCN(C(CN3CCC3)c3ccc(C(F)(F)F)cc3)CC2)c1-c1ccc(F)cc1` (stereo not given), the figures for the IC50 in data set [1], in data set [2] and in data set [3] were more than 1 µM, 1.5 µM and 0.0042 µM, respectively.

As for `NCC(c1ccc(F)c(C(F)(F)F)c1)N1CCN(c2ncnc(N)c2-c2ccc(F)cc2)CC1` (stereo not given), the IC50 in data set [1] was more than 1 µM; in data set [2], 2.9 µM; in data set [3] it was 0.014 µM.

For the compound `CCc1c(N)ncnc1N1CCC(c2nc(-c3ccc(F)c(C(F)(F)F)c3)cn2CCN2CCC2)CC1`, the half-inhibitory concentration (IC50) in data set [1] was determined as 0.004 µM; in data set [2] it was 49 µM; in data set [4], 1.6 µM; in data set [3] it was 0.002 µM.

For the compound `Cn1cc(-c2ccc(F)c(C(F)(F)F)c2)nc1C1CCN(c2ncnc(N)c2-c2cccc(F)c2)CC1`, the IC50 in data set [1] is more than 1 µM; in data set [2], 0.4 µM; in data set [3], 0.0016 µM.

Regarding `Nc1ncnc(N2CCC(c3nc(-c4ccc(F)c(C(F)(F)F)c4)cn3CCN3CCC3)CC2)c1Cl`, the IC50 in data set [1] turned out to be 0.001 µM; in data set [2], 64 µM; in data set [4], 1.9 µM; in data set [3], 0.0006 µM.

`CCc1c(N)ncnc1N1CCC(c2nc(-c3ccc(F)c(C(F)(F)F)c3)cn2CCN(C)C)CC1`: the values for the IC50 in data set [1] and in data set [3] were 0.012 µM and 0.0037 µM, respectively.

For the compound `Cc1ncc(-c2c(N)ncnc2N2CCC(c3nc(-c4ccc(F)c(C(F)(F)F)c4)cn3C)CC2)s1`, the IC50 was 0.85 µM in data set [1], 0.6 µM in data set [2] and 0.0021 µM in data set [3].

As to `CN(C)CCn1cc(-c2ccc(F)c(C(F)(F)F)c2)nc1C1CCN(c2ncnc(N)c2C2CC2)CC1`, the IC50 in data set [1] was 0.0048 µM; in data set [4], 0.83 µM; in data set [3], 0.0032 µM.

Turning to `NCC(c1ccc(F)cc1)N1CCN(c2ncnc(N)c2-c2ccc(F)cc2)CC1` (stereo not given), the IC50 in data set [1] was more than 1 µM; in data set [2] it was 1.9 µM; in data set [3], 0.0044 µM.

Consider `CN(C)CCn1cc(-c2ccc(F)c(C(F)(F)F)c2)nc1C1CCN(c2ncnc(N)c2C(N)=O)CC1`, for which the IC50 in data set [1] turned out to be 0.084 µM; in data set [2] it was 89 µM; in data set [4] it was 4 µM; in data set [3], 0.0035 µM.

For `Cn1cc(-c2ccc(F)c(C(F)(F)F)c2)nc1C1CCN(c2ncnc(N)c2C(N)=O)CC1`, the IC50 was determined as 1.6 µM in data set [1], 2.3 µM in data set [2], 1.9 µM in data set [4] and 0.003 µM in data set [3].
